Counter-ions that a name gives are not always drawn.

The target of one assay is T1, IKKε (Homo sapiens, UniProt Q14164).
T1 sequence (Q14164 1-716): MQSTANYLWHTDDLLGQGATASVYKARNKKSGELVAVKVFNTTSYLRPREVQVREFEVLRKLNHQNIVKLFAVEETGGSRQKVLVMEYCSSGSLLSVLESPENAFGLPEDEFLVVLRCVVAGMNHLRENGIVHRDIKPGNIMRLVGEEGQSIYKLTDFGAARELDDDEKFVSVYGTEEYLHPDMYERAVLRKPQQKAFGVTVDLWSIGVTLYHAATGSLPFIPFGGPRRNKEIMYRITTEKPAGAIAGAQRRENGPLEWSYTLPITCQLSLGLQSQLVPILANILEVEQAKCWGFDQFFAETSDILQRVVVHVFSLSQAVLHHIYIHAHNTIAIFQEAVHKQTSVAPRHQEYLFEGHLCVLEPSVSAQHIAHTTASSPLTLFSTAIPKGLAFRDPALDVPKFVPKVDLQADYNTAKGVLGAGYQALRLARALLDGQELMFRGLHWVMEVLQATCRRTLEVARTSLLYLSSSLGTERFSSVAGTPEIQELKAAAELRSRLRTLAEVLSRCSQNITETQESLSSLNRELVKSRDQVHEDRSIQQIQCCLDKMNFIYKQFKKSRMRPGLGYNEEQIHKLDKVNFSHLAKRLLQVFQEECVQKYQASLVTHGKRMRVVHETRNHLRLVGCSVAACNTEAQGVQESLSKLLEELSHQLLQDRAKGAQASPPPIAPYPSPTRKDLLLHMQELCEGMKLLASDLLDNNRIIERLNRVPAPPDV
Kind of assay: IKKε biochemical assay. As to conditions: 10 point 1:4 dose response, 30 uM top concentration, 90 min at 25° C., LabChip EZ Reader II; read-out: IKKε_IC50. The method, then: (§1) Test compounds were transferred into Labcyte polypropylene 384 well plates (P055-25) and diluted to 3 mM using DMSO. […] 100 uM of a reference compound (1 uM final high concentration). Backfilling was performed if necessary so that all wells contain 1% DMSO final:
add 75 nl DMSO/well into columns 1, 2 and 24 using Labcyte Echo. add 75 nl 1.0 mM staurosporine/well into column 23 using Labcyte Echo (10 uM final) add 4.5 ul enzyme/well using multidrop dispenser add 3 ul substrate/well using multidrop dispenser incubate at 25° C. for 90 min. add 7.5 ul 2× stop buffer read on labchip ez reader II using IKKε.
(§2) Raw data files were opened in the Caliper LabChip Reviewer program (Version 3.0.265.0 SP2) and peak assignments were adjusted to reflect “substrate first” with the software's post-run analysis options. A spline-fit baseline was applied using the software's analysis algorithm.

A further assay addresses T2, TBK1 (Homo sapiens, UniProt Q9UHD2).
T2 sequence (Q9UHD2 1-729): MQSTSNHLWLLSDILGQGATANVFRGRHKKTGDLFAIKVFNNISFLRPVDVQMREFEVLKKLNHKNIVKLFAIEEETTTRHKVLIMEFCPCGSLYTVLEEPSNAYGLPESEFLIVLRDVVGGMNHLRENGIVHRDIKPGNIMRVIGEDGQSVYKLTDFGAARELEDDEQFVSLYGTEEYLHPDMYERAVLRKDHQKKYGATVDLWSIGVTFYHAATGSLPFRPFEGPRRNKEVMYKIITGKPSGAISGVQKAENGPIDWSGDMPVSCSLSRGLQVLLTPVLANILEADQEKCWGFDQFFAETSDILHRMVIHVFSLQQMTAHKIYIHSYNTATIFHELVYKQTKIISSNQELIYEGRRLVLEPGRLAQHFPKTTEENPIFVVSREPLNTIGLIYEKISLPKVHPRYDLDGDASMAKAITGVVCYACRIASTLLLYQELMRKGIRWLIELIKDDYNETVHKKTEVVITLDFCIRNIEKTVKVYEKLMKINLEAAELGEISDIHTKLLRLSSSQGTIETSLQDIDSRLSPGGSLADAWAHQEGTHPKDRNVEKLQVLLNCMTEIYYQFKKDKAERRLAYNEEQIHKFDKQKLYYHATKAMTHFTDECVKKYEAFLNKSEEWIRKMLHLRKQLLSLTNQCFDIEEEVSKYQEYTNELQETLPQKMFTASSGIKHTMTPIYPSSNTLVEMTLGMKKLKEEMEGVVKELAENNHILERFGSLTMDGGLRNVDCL
Kind of assay: TBK biochemical assay. As to conditions: 10 point 1:4 dose response, 30 uM top concentration, 90 min at 25° C., LabChip EZ Reader II; read-out: TBK1_IC50. As to the method:
as §1
add 75 nl DMSO/well into columns 1, 2 and 24 using Labcyte Echo. add 75 nl 1.0 mM staurosporine/well into column 23 using Labcyte Echo ([…]) add 4.5 ul enzyme/well using multidrop dispenser add 3 ul substrate/well using multidrop dispenser incubate at 25° C. in Heidolph incubator for 90 min. add 7.5 ul 2× stop buffer using multidrop dispenser read on labchip ez reader II using TBK1.job
as §2

In the case of `COc1nc(Nc2nccc(-c3ccc(OC4CCOCC4)c(C#N)n3)n2)ccc1C(=O)NC1CN2CCC1CC2` (stereo not drawn) [Example 29, N-[1-azabicyclo[2.2.2]octan-3-yl]-6-([4-[6-cyano-5-(oxan-4-yloxy)pyridin-2-yl]pyrimidin-2-yl]amino)-2-methoxypyridine-3-carboxamide], the IC50 at IKKε and at TBK1 was under 0.1 µM each time.

`COc1nc(Nc2nccc(-c3ccc(OC4CCOCC4)c(C#N)n3)n2)ccc1C(=O)N1CCCCC1` [Example 30, 6-[2-([6-methoxy-5-[(piperidin-1-yl)carbonyl]pyridin-2-yl]amino)pyrimidin-4-yl]-3-(oxan-4-yloxy)pyridine-2-carbonitrile]: the IC50 at IKKε and at TBK1 was under 0.1 µM each time.

Consider `COc1nc(Nc2nccc(-c3ccc(OC4CCOCC4)c(C#N)n3)n2)ccc1C(=O)N1CCN(C)CC1` [Example 31, 6-[2-([6-methoxy-5-[(4-methylpiperazin-1-yl)carbonyl]pyridin-2-yl]amino)pyrimidin-4-yl]-3-(oxan-4-yloxy)pyridine-2-carbonitrile], for which the IC50 at IKKε and on TBK1 was under 0.1 µM in each case.

Consider `COc1nc(Nc2nccc(-c3ccc(OC4CCOCC4)c(C#N)c3)n2)ccc1N1CCN(C)CC1` [Example 33, 5-(2-(6-methoxy-5-(4-methylpiperazin-1-yl)pyridin-2-ylamino)pyrimidin-4-yl)-2-(tetrahydro-2H-pyran-4-yloxy)benzonitrile], for which the IC50 on IKKε and on TBK1 was under 0.1 µM each time.

For `COc1nc(Nc2nccc(-c3ccc(OC4CCOCC4)c(C#N)c3)n2)ccc1N(C)CCN(C)C` [Example 34, 5-[2-[(5-[[2-(dimethylamino)ethyl](methyl)amino]-6-methoxypyridin-2-yl)amino]pyrimidin-4-yl]-2-(oxan-4-yloxy)benzonitrile hydrochloride], the IC50 at IKKε and on TBK1 was under 0.1 µM in each case.

With `COc1nc(Nc2nccc(-c3ccc(OC4CCOCC4)c(C#N)c3)n2)ccc1N(C)CC(=O)N(C)C` [Example 35, 2-[[6-([4-[3-cyano-4-(oxan-4-yloxy)phenyl]pyrimidin-2-yl]amino)-2-methoxypyridin-3-yl](methyl)amino]-N,N-dimethylacetamide hydrochloride], the IC50 on IKKε and on TBK1 was under 0.1 µM each time.

As for `COc1nc(Nc2nccc(-c3ccc(OC4CCOCC4)c(C#N)c3)n2)ccc1N1C[C@@H](C)N(C)[C@@H](C)C1` [Example 36, 5-[2-([6-methoxy-5-[cis-3,4,5-trimethylpiperazin-1-yl]pyridin-2-yl]amino)pyrimidin-4-yl]-2-(oxan-4-yloxy)benzonitrile], the IC50 at IKKε and on TBK1 was under 0.1 µM each time.

As for `COc1nc(Nc2nccc(-c3ccc(OC4CCOCC4)c(C#N)c3)n2)ccc1N1C[C@@H](C)O[C@@H](C)C1` [Example 37, 5-[2-([5-[cis-2,6-dimethylmorpholin-4-yl]-6-methoxypyridin-2-yl]amino)pyrimidin-4-yl]-2-(oxan-4-yloxy)benzonitrile], the IC50 on IKKε and on TBK1 was under 0.1 µM in each case.

For the compound `COc1nc(Nc2nccc(-c3ccc(OC4CCOCC4)c(C#N)c3)n2)ccc1N1C[C@@H](C)N(C2COC2)[C@@H](C)C1` [Example 38, 5-[2-([5-[cis-3,5-dimethyl-4-(oxetan-3-yl)piperazin-1-yl]-6-methoxypyridin-2-yl]amino)pyrimidin-4-yl]-2-(oxan-4-yloxy)benzonitrile], the IC50 at IKKε and on TBK1 was under 0.1 µM in each case.

Regarding `COc1nc(Nc2nccc(-c3ccc(OC4CCOCC4)c(C#N)c3)n2)ccc1C1CCN(C)CC1` [Example 40, 5-(2-[[6-methoxy-5-(1-methylpiperidin-4-yl)pyridin-2-yl]amino]pyrimidin-4-yl)-2-(oxan-4-yloxy)benzonitrile], the IC50 on IKKε and on TBK1 was under 0.1 µM each time.

`COc1nc(Nc2nccc(-c3ccc(OC4CCOCC4)c(C#N)c3)n2)ccc1CNC1CCN(C)CC1` [Example 41, 5-[2-[(6-methoxy-5-[[(1-methylpiperidin-4-yl)amino]methyl]pyridin-2-yl)amino]pyrimidin-4-yl]-2-(oxan-4-yloxy)benzonitrile hydrochloride]: the IC50 on IKKε and on TBK1 was under 0.1 µM each time.

Regarding `COc1nc(Nc2nccc(-c3ccc(OC4CCOCC4)c(C#N)c3)n2)ccc1C1CCN(C)C1` (stereo not drawn) [Example 42, 5-(2-[[6-methoxy-5-(1-methylpyrrolidin-3-yl)pyridin-2-yl]amino]pyrimidin-4-yl)-2-(oxan-4-yloxy)benzonitrile], the IC50 at IKKε and at TBK1 was under 0.1 µM each time.

Consider `COc1nc(Nc2nccc(-c3ccc(OC4CCOCC4)c(C#N)c3)n2)ccc1C1CCN(C)CC1F` (stereo not drawn) [Example 43, 5-(2-[[5-(3-fluoro-1-methylpiperidin-4-yl)-6-methoxypyridin-2-yl]amino]pyrimidin-4-yl)-2-(oxan-4-yloxy)benzonitrile], for which the IC50 at IKKε and at TBK1 was under 0.1 µM throughout.

As for `COc1nc(Nc2nccc(-c3cc(C#N)c(OC4CCOCC4)cn3)n2)ccc1N1CCN(C)CC1` [Example 44, 2-(2-[[6-methoxy-5-(4-methylpiperazin-1-yl)pyridin-2-yl]amino]pyrimidin-4-yl)-5-(oxan-4-yloxy)pyridine-4-carbonitrile hydrochloride], the values for the IC50 at IKKε and at TBK1 were over 5 µM and 1 to 5 µM, respectively.

Turning to `COc1nc(Nc2nccc(-c3cc(C#N)c(OC4CCOCC4)cn3)n2)ccc1C1CCN(C)CC1` [Example 45, 2-(2-[[6-methoxy-5-(1-methylpiperidin-4-yl)pyridin-2-yl]amino]pyrimidin-4-yl)-5-(oxan-4-yloxy)pyridine-4-carbonitrile], the IC50 on IKKε is 1 to 5 µM; at TBK1, over 5 µM.

`COc1nc(Nc2nccc(-c3ccc(OC4CCOCC4)c(C#N)n3)n2)ccc1C1CCN(C)CC1` [Example 46, 6-(2-[[6-methoxy-5-(1-methylpiperidin-4-yl)pyridin-2-yl]amino]pyrimidin-4-yl)-3-(oxan-4-yloxy)pyridine-2-carbonitrile]: the IC50 at IKKε and at TBK1 was under 0.1 µM each time.

Turning to `COc1cc(C(=O)N(C)C)ncc1Nc1nccc(-c2ccc(OC3CCOCC3)c(C#N)c2)n1` [Example 47, 5-([4-[3-cyano-4-(oxan-4-yloxy)phenyl]pyrimidin-2-yl]amino)-4-methoxy-N,N-dimethylpyridine-2-carboxamide], the IC50 on IKKε was 0.1 to 1 µM; at TBK1 it was under 0.1 µM.

`COc1nc(C(=O)N(C)C)ccc1Nc1nccc(-c2ccc(OC3CCOCC3)c(C#N)c2)n1` [Example 48, 5-([4-[3-cyano-4-(oxan-4-yloxy)phenyl]pyrimidin-2-yl]amino)-6-methoxy-N,N-dimethylpyridine-2-carboxamide]: the IC50 on IKKε and on TBK1 was under 0.1 µM in each case.

These data come from patent US20230019491A1, “PYRIMIDINE TBK/IKKe INHIBITOR COMPOUNDS AND USES THEREOF” (Merck Patent GmbH, priority 2017, published 2023).
